Assay results published in patent US9415032B2, “Membrane activated chelators and use in the prevention and treatment of parasitic infection” (THE JOHNS HOPKINS UNIVERSITY, priority 2011, dated 2016).
Like-named read-outs stand apart in the source and are kept apart here.

Columns and labels:
Assay type in all cases: cell-based
[1] = system: T. b. brucei 427 or T. b. rhodesiense IL1852; assay: trypanosome cytotoxicity assay in vitro; settings: Trypanosoma brucei, by 24 hours, BSF trypanosomes, read-out: effective concentration of drug to kill 50% (EC50) of the parasites
Protocol: (§1) FIG. 1 illustrates the effect of MACs of the present invention on human brain microvascular endothelial cell (BMEC) monolayers interaction with trypanosomes. (A) Human BMEC pretreated with 20 μM DP-b99 impeded parasite transmigration across this barrier (t-5 hours, n=3). […] The data are represented as average TEER or migration±S.E. (n=4; p<0.05). (B) BSF trypanosomes were incubated with DP-b99 or DP460. The average percent (n=4) of parasites killed after 24 hours is plotted against drug concentration.
(§2) African Trypanosomes: The MAC compound of the present invention, DP-b99, as a chelator of Ca^2+ and Zn^2+ was tested to determine whether it would tighten the BBB to trypanosome traversal based on the concepts described above. In pilot parasite/BBB transmigration experiments, bloodstream form Trypanosoma brucei rhodesiense (Tbr) IL1852 were incubated in Transwell inserts containing human brain microvascular endothelial cell (BMEC) monolayers pretreated for 60 minutes with DP-b99, then washed free of drug. In a parallel experiment, human BMEC grown on gold-coated electrode ECIS arrays, were similarly treated with the MAC compound. When compared to the untreated control group, T. b. rhodesiense transmigration across a human BMEC barrier was impeded 60% after 5 hours incubation (FIG. 1A). […]

P. falciparum = assay: antimalarial cytotoxicity assay ([3H]hypoxanthine), malaria-infected RBC; settings: Plasmodium falciparum
Protocol: FIG. 2 is set of graphs showing the percentage of P. falciparum killed by MACs of the present invention as a function of drug concentration. Malaria-infected RBC were incubated with DP-b99 (A and B).
FIG. 3 is a graph showing the percentage of P. falciparum killed by MACs of the present invention as a function of drug concentration.
Malaria. Because of the importance of calcium signaling in mammalian cells and recent findings that interference with host cell signaling pathways to subvert the host intracellular milieu may be an important mechanism for the malaria parasite's survival, it was thought that MACs might be toxic to malarial parasite within host cells (i.e. RBCs, hepatocytes). It was investigated whether MAC compounds of the present invention would be able to kill intracellular malaria parasites. An established antimalarial cytotoxicity assay developed in Dr. Theresa Shapiro's laboratory (JHU) (Tetrahedron, 1997; 53(1):37-50) was used with the following modifications: (1) Parasitemia was maintained at 0.1% to 5% by thrice weekly change of medium and replenishment of human erythrocytes; (2) [^3H]hypoxanthine (10-30 Ci/mmol, 1.0 mCi/mL was used in aqueous solution, (Perkin-Elmer NET177001MC), diluted to 25 μCi/mL with medium; and as for the trypanosome experiments (3) the cytotoxicity assays for two MAC compounds of the present invention, DP-b99 and DP-460 (DPharm, Ltd., Rehovot Ill.), included 10 concentrations based on stock solutions (50.0 mg/mL) of each compound that were prepared in sterile HPLC-grade water.

[2] = system: human brain microvascular endothelial cell (BMEC) monolayers; assay: ECIS transendothelial electrical resistance (TEER) of human BMEC during infection; settings: BMEC pretreated with 20 μM DP-b99
Protocol: as §1, §2

[3] = system: bloodstream form Trypanosoma brucei rhodesiense (Tbr) IL1852 transmigration across human BMEC barrier; assay: parasite/BBB transmigration across human BMEC monolayers in Transwell inserts; settings: BMEC pretreated 60 minutes with 20 μM DP-b99, washed free of drug; after 5 hours incubation
Protocol: as §1, §2

[4] = pilot experiments, read-out: concentration range found to kill P. falciparum

| SMILES | EC50 [1] [µM] | EC50 (P. falciparum; R^2=0.995 (FIG. 3), read-out: EC50, P. falciparum killed) [µM] | EC50 (P. falciparum; [4]) [µM] | barrier tightness of human BMEC during the infection (ECIS TEER) [2] | T. b. rhodesiense transmigration across a human BMEC barrier impeded, compared to untreated control [3] [%] |
| --- | --- | --- | --- | --- | --- |
| CCCCCCCCCCCCOCCOC(=O)CN(CC(=O)O)c1ccccc1OCCOc1ccccc1N(CC(=O)O)CC(=O)OCCOCCCCCCCCCCCC [DP-460] | ~39 | 28 | 21 to 28 | – | – |
| CCCCCCCCOCCOC(=O)CN(CC(=O)O)c1ccccc1OCCOc1ccccc1N(CC(=O)O)CC(=O)OCCOCCCCCCCC [DP-b99] | ~87 | – | 21 to 28 | maintained a tighter barrier | 60 |
